Experimental data taken from US8993721B2, “Peptides for targeting apoptotic cells and uses thereof” (Kyungpook National University Industry-Academic Cooperation …, priority 2008, dated 2015).
“Also recorded” adds a separate entry of the source. Where no end group is shown, it is not given here.

Assays:
[1] = tested on: A549 tumor xenotransplanted in nude mice; experiment: In vivo fluorescence imaging of targeting of apoptotic cells in tumor (Example 4-1); design: species or system mouse
Procedure: Nude mice in which tumor was xenotransplanted using A549 cells were prepared as in Example <2-1>. The mice were grouped into a doxorubicin (Sigma) treated group (+Dox) and untreated group (−Dox). The treated group was treated with doxorubicin (10 mg/kg) 3 times, with an interval of 48 hours, a week prior to injection of the peptide. At the tail vein of each mouse, the peptide of the present invention or a control peptide, labeled with fluorescein, was injected at a final concentration of 50 μM, under isoflurane anesthesia. Following the injection, in vivo fluorescence images were obtained every hour, from 1 hour to 6 hours after the injection, using an Optix exPlore instrument (GE Healthcare). The images were standardized using the software provided with the instrument.
Further, when the tumor grew considerably (1 cm or larger in diameter), the peptide of the present invention was injected at the same concentration as above, without doxorubicin treatment, and in vivo fluorescence images were obtained at every given time using an IVIS fluorescence imaging system (Chemipro).

[2] = tested on: etoposide-treated apoptotic A549 cells; experiment: FACS analysis of binding to apoptotic cells (Example 3-3); type: cell-based, human
Procedure: As another way of confirming the binding of the peptide of the present invention to apoptotic cells, apoptotic cells were treated with the peptide of the present invention, labeled with fluorescein, and the binding was confirmed through FACS analysis. […] The apoptotic cells or normal cells were reacted with ApoPep-1 (5 μM), ApoPep-2 (10 μM) or a control peptide at the same concentrations, labeled with fluorescein, at 4° C. for 1 hour. Further, the cells were reacted with fluorescein-labeled annexin V at room temperature for 15 minutes. After staining the cells with propodium iodide (PI) simultaneously, followed by washing with PBS, FACS analysis was performed using a FACS instrument (Becton Dickinson).

[3] = tested on: etoposide-treated apoptotic cells (A549, H460, HeLa, L132, RAW); experiment: Microscopic observation of binding of the peptide to apoptotic cells (Example 3-1); type: cell-based
Procedure: Cells were cultured in chamber slide (Nalgene Nunc) and treated with 50 μM etoposide (Sigma) for a given period of time (A549 and HeLa cells: for 15 hours, H460 cells: 24 hours, L132 cells: 3 hours, RAW cells: 6 hours) to induce apoptosis. The cells were cultured in RMPI-1640 medium (A549 and H460 cells) or DMEM (HeLa, L132 and RAW cells) containing antibiotics (penicillin and streptomycin) and 10% FBS. All the cells were subcultured every 3 or 4 days. The apoptosis-induced apoptotic cells were washed with PBS and blocked with 1% BSA at 37° C. for 30 minutes. Then, the cells were reacted with 10 μM of the peptide labeled with fluorescein, at 4° C. for 1 hour. After washing, the cells were reacted with an annexin V reaction buffer containing Alexa594-labeled annexin V (Molecular Probes), at room temperature for 15 minutes. The cells were washed with PBS and then fixed with 4% paraformaldehyde for 5 minutes. Thereafter, after counterstaining using the nuclear stain 4′,6-diamidino-2-phenylindole (DAPI), followed by treatment with a mounting solution (Molecular Probes), images of the cells were obtained under a fluorescence microscope (Zeiss).

[4] = tested on: apoptotic cells in A549 tumor tissue xenotransplanted under the skin of nude mouse; experiment: Histological analysis of tumor targeting (Example 2); type: in vivo; details: fluorescein-labeled peptide, tail vein; for binding to cells stained by TUNEL (apoptotic cells) in tumor tissue: merge of peptide fluorescence and TUNEL
Procedure: All animal experiments were performed in accordance with the guideline of the Institutional Animal Care and Use Committee. For tumor xenotransplantation, human lung cancer cells (A549, 1×10^7 cells) suspended in RMPI-1640 medium was subcutaneously injected at the right upper or lower limb of a 6-week-old male BALB/c nude mouse (Hyochang Science). Then, 3 weeks were given for the tumor to grow to a size of 0.5 to 1 cm. The A549 cell line used in the experiment was cultured in RMPI-1640 medium containing 10% fetal bovine serum (FBS) in which antibiotics (penicillin and streptomycin) were included. Subculturing was performed every 3 or 4 days.
The peptides used in the present invention were fluorescein-attached form at the N-terminal. They were synthesized according to the standard Fmoc technique and then isolated through HPLC. The peptide synthesis was performed by an expertise company (Peptron).
The peptide of the present invention (ApoPep-1) or a control peptide (amino acid sequence: NSSSVDK), labeled with fluorescein, was injected into the tail vein of a mouse under isoflurane anesthesia, to a final concentration of 50 μM, and 2 hours was given for circulation.
For histological analysis, the mouse was anesthetized and the abdomen was cut open. After sequentially perfusing phosphate-buffered saline (PBS) and 4% paraformaldehyde through the heart, tumor tissues and organs were removed. Each tissue was cryosected and the peptide of the present invention was observed under a fluorescence microscope (Zeiss). Apoptosis in the tumor tissue was confirmed by TUNEL ([…] terminal deoxynucleotidyl transferase-mediated dUTP nick-end labeling) assay according to the instructions of the manufacturer (Chemicon). Fibrinogen staining was performed by immunohistochemistry using anti-fibrinogen antibody (Abcam) and secondary antibody labeled with Alexa 568, a red fluorescent reagent.

[5] = tested on: brain of stroke rat (middle cerebral artery occlusion/reperfusion); experiment: Molecular imaging of stroke (Example 6); type: in vivo
Procedure: A stroke model was established by occluding the left middle cerebral artery of a rat for 2 hours, followed by reperfusion. Two hours after the reperfusion, the peptide having an amino sequence represented by SEQ ID NO: 1 (ApoPep-1) and a control peptide, labeled with Cy7.5 NIR fluorescence, was intravenously injected at a final concentration of 50 μM to the stroke rat and a normal rat through the tail vein, under isoflurane anesthesia. One and three hours after the intravenous injection, NIR images of the head portion were obtained. Further, NIR fluorescence images of the brains of the rats of the 3 hour group were obtained.

[6] = tested on: necrosis-induced A549 cells (glucose-depleted medium); experiment: Microscopic observation of binding of the peptide to necrotic cells (Example 9-4); type: cell-based, human; details: glucose-depleted medium 24 hours; 10 μM fluorescein-labeled peptide 4° C. 1 hour
Procedure: A549 Cells were cultured in chamber slide (Nunc) and treated with glucose-depleted medium for 24 hours to induce necrosis. The necrosis-induced cells were washed with PBS and blocked with 1% BSA at 37° C. for 30 minutes. Then, the cells were reacted with 10 μM of the peptide labeled with fluorescein, at 4° C. for 1 hour. After washing, the cells were reacted with […] Hoechst […] dye and […] PI at 37° C. for 15 minutes. The cells were washed with PBS and then fixed with 4% paraformaldehyde for 5 minutes.

[7] = etoposide 15 hours, peptide 5 μM, 4° C. 1 hour
[8] = Cy7.5-labeled peptide 50 μM i.v.

Row | Substance | time until which the tumor fluorescence signal was detected ([1]; doxorubicin treated group, fluorescein-labeled peptide 50 μM) [h] | time at which the fluorescence signal from the tumor tissue was most strongly detected ([1]; doxorubicin treated group, fluorescein-labeled peptide 50 μM, tail vein) [h] | fluorescence signal from the tumor, doxorubicin untreated group ([1]; −Dox, fluorescein-labeled peptide 50 μM) | binding to normal cells (FACS) ([2]; A549 cells without etoposide, 4° C. 1 hour) | cells at the early stage of apoptosis bound to the peptide [2, 7] [%] | cells at the later stage of apoptosis bound to the peptide [2, 7] [%] | labeling of normal cells not treated with etoposide ([3]; 10 μM fluorescein-labeled peptide 4° C. 1 hour, Alexa594-annexin V) | labeling of etoposide-treated apoptotic cells (fluorescence microscopy) ([3]; 50 μM etoposide, 10 μM fluorescein-labeled peptide 4° C. 1 hour, Alexa594-annexin V room temperature 15 minutes) | location of peptide binding relative to annexin V binding (merge) ([3]; etoposide-treated apoptotic cells) | peptide fluorescence observed in the tumor tissue ([4]; 50 μM final, 2 hours circulation, cryosections) | binding to cells not stained by TUNEL (coagulation necrotic site, fibrinogen staining) ([4]; 50 μM, 2 hours) | binding to cells stained by TUNEL (apoptotic cells) in tumor tissue ([4]; 50 μM, 2 hours) | fluorescence of isolated brain of stroke rat ([5]; 3 hour group, left middle cerebral artery occluded) | NIR fluorescence at the head portion of the normal rat [5, 8] | NIR fluorescence at the head portion of the stroke rat at 3 hours [5, 8] | NIR fluorescence at the head portion of the stroke rat at 1 hour ([5]; Cy7.5-labeled peptide 50 μM i.v., 2 hours after reperfusion) | time from which fluorescence from the tumor was detected ([1]; large tumor (1 cm or larger in diameter), no doxorubicin, IVIS) [h] | fluorescence signal from the tumor at 5 hours ([1]; large tumor (1 cm or larger), no doxorubicin) | binding to apoptotic cells versus normal cells (FACS) ([2]; etoposide 20 hours, peptide 10 μM at 4° C. or 37° C. for 1 hour) | labeling of glucose-depleted necrotic cells [6]
1 | CQRPPR (also: fluorescein or Cy7.5 label) [ApoPep-1, peptide CQRPPR screened for macrophages; used fluorescein- or Cy7.5-labeled] | 5 | 2 | weakly detected or almost nonexistent | almost nonexistent | 90.3 | 7.2 | no labeling was observed | labeling was observed | at the same locations | observed in the tumor tissue | also binds to the cells not stained by TUNEL | binds to the cells stained by TUNEL | fluorescence was observed at the left hemisphere | almost nonexistent | very strong fluorescence | NIR fluorescence was observed |  |  |  | 
2 | CSVAPR (also: fluorescein or Cy7.5 label) [ApoPep-2, peptide CSVAPR screened for endothelial cells; used fluorescein- or Cy7.5-labeled] |  |  |  |  |  |  |  |  |  |  |  | binds to the apoptotic cells in the tumor tissue |  |  |  |  | 2 | strong fluorescence signal | bound better to the apoptotic cells than to the normal cells | did not bind to the necrosis-induced cells; also recorded: no labeling was observed
